Test results taken from the SangsterLogP compilation.

Test: method code SF-AS, from Bernabe, T.; Forni, F.; Bellei, S.; Cameroni, R. (1980). Partition coefficients of a series of substituted benzoic acids. Atti Soc. Nat. Mat Modena, 111(1)63-72.
Conditions: pH 1.0

SMILES	logD
O=C(O)c1cc(I)ccc1O	2.63
O=C(O)c1ccc(O)c(Cl)c1	2.41
COc1cc(OC)cc(C(=O)O)c1	2.19
COc1ccc(C(=O)O)cc1OC	1.61
O=C(O)c1cc([N+](=O)[O-])cc([N+](=O)[O-])c1O	1.71
O=C(O)c1cc(Cl)ccc1[N+](=O)[O-]	2.13
COc1cccc(C(=O)O)c1O	1.94
Cc1cccc(C(=O)O)c1O	2.86
Nc1cc([N+](=O)[O-])ccc1C(=O)O	1.91
O=C(O)c1cc([N+](=O)[O-])c(Cl)c([N+](=O)[O-])c1	2.5
Nc1c(Cl)cc(Cl)cc1C(=O)O	1.82
O=C(O)c1ccc(Cl)cc1[N+](=O)[O-]	2.08
O=C(O)c1ccc([N+](=O)[O-])c(O)c1	1.98
O=C(O)c1ccc(O)c([N+](=O)[O-])c1	1.85
